Reference: patent publication US4097596A, “Inhalation therapy for relieving bronchial spasm using quaternary salts of promethazine” (American Home Products Corporation, priority 1976, dated 1978)
Values joined by “and” are separate entries in the source; they are usually repeats but may differ in a detail not shown here. Equal values may be shown once. Where a name gives a salt, the structure may show the parent alone. Read-outs that look alike come from different tables or passages of the source.

Tests used:
histamine = experiment: Inhibition of histamine-induced bronchoconstriction by aerosol, anesthetized guinea pigs; type: in vivo
Procedure: (§1) Anesthetized (Pentobarbitol-urethane) guinea pigs were artificially respired at a constant positive air pressure (Starling miniature pump) and changes in tidal air during inspiration were recorded, according to the method of Rosenthale et al., Int. Arch. Pharmacol., 172, 91 (1968). The bronchoconstrictor agents acetylcholine and histamine were administered intravenously at doses of 1 to 30 μg/kg. depending on each animal's sensitivity to these compounds, and control responses to acetylcholine and histamine were thus established. Bronchoconstrictor agents raise the resistance of the lungs to inflation thereby decreasing the tidal air flow. A solution of the test compound was then administered by aerosol, in physiological saline or distilled water, and the animals were then challenged again with acetylcholine or histamine and the degree of inhibition of bronchoconstriction by the test compound was thus determined.

acetylcholine = experiment: Inhibition of acetylcholine-induced bronchoconstriction by aerosol, anesthetized guinea pigs; type: in vivo
Procedure: as §1

[1] = test system: cholinergic-induced bronchoconstriction; experiment: Effect of drugs on cholinergic-induced bronchoconstriction in the cat (aerosol); type: in vivo; details: as cation, mean ± S.E.
Procedure: Cats of either sex were anesthetized and respiration was arrested by the administration of an intravenous infusion of 1 mg/ml/min of succinylcholine chloride. The animals were artificially respired with a Harvard pump. A neostigmine methylsulfate solution (0.1 mg/ml) was infused intravenously at a rate of 1 ml/min until maximal or complete bronchoconstriction occurred, but the experiment was not begun until a stable state was attained. The respiratory flow was measured with a Fleisch pneumotachograph and a differential pressure transducer. Transpulmonary pressure was measured with a differential pressure transducer bridged between the trachea and the intrapleural space. Pulmonary airway resistance and compliance was measured by a modification of the Mead & Whittenberger electronic subtraction method using the Hewlett-Packard respiratory pre-amplifier or the isovolumetric method using the Buxco Pulmonary mechanics computer [Rosenthale et al., J. Pharmacol. Exp. Ther., 178, 541, (1971)].
Drugs were administered as cation as an aerosol by means of a Monaghan ultrasonic nebulizer. The dosage was varied by adjusting the concentration of the solution. Activity was measured by the ability of the drug to reverse the increased airway resistance and decreased compliance characteristic of cholinergic stimulation induced by succinylcholine and neostigmine.

[2] = cited from earlier work
smooth muscle = details: cited from earlier work
[3] = 15.0 μg as cation, distilled water
[4] = 0.15 μg as cation, distilled water
[5] = 1.5 μg as cation, distilled water
[6] = 15.0 μg as cation, physiological saline
[7] = 0.1 μg, listed as Promethazine methyl chloride
[8] = 1.0 μg, listed as Promethazine methyl chloride
[9] = 10.0 μg, listed as Promethazine methyl chloride
[10] = 100.0 μg, listed as Promethazine methyl chloride
[11] = 0.1 μg, listed as Promethazine methyl iodide
[12] = 1.0 μg, listed as Promethazine methyl iodide
[13] = 10.0 μg, listed as Promethazine methyl iodide
[14] = 100.0 μg, listed as Promethazine methyl iodide
[15] = 1.5 μg as cation, physiological saline

Row | Structure (SMILES) | Mean % Inhibition (±S.E.) vs. Histamine (histamine; [3]) | Mean % Inhibition (±S.E.) vs. Acetylcholine (acetylcholine; [4]) | Mean % Inhibition (±S.E.) vs. Acetylcholine (acetylcholine; [5]) | Mean % Inhibition (±S.E.) vs. Acetylcholine (acetylcholine; [3]) | Mean % Inhibition (±S.E.) vs. Histamine (histamine; [6]) | Mean % Inhibition (±S.E.) vs. Acetylcholine (acetylcholine; [6]) | other results
1 | CC[N+](C)(C)C(C)CN1c2ccccc2Sc2ccccc21 (racemic) [C2 H 5 / I, dl-N-Ethyl-N,N,α-Trimethyl-10H-Phenothiazine-10-Ethanaminium Iodide] | 78.67 (8.74) % | 20.0 (7.70) % | 62.75 (10.63) % | 98.66 (1.33) % | – | – | –
2 | CC(CN1c2ccccc2Sc2ccccc21)[N+](C)(C)C (racemic) [CH3 / Br, dl-Trimethyl[1-Methyl-2-(Phenothiazin-10-yl)Ethyl]Ammonium Bromide] | – | 0% | 38.75 (9.26) % | 99.0 (1.0) % | – | – | –
3 | CC(CN1c2ccccc2Sc2ccccc21)[N+](C)(C)C (racemic) [CH3 / CH3 SO4, dl-Trimethyl[1-Methyl-2-(Phenothiazine-10-yl)Ethyl]Ammonium Methyl Sulfate] | – | – | – | – | 98% | 86% | –
4 | CC(CN1c2ccccc2Sc2ccccc21)[N+](C)(C)C (racemic) [CH3 / Cl, dl-Trimethyl[1-Methyl-2-(Phenothiazin-10-yl)Ethyl]Ammonium Chloride] | 98.2 (1.8) % | – | 24.25 (10.21) % and 26.67 (6.77) % | 86.3 (10.37) % and 100 (0) % | – | – | Pulmonary Compliance % Protection [1, 7]: 6.8±4.1%; Pulmonary Resistance % Protection [1, 7]: 8.8±7.7%; Duration 50% (time to return to 50% of control constricted state) ([1]; 0.1 μg, methyl chloride done in 3 cats, listed as Promethazine methyl chloride): 2.7 ± 1.5 min; Duration 50% (time to return to 50% of control constricted state) [1, 8]: > 10 min; Pulmonary Compliance % Protection [1, 8]: 7.8±4.1%; Pulmonary Resistance % Protection [1, 8]: 17.2±2.8%; Duration 50% (time to return to 50% of control constricted state) [1, 9]: 21.0 ± 4.0 min; Pulmonary Compliance % Protection [1, 9]: 71.4±51.1%; Pulmonary Resistance % Protection [1, 9]: 50.0±4.6%; Duration 50% (time to return to 50% of control constricted state) [1, 10]: > 60 min; Pulmonary Compliance % Protection [1, 10]: 60.8±25.7%; Pulmonary Resistance % Protection [1, 10]: 72.8±2.1%
5 | CC(CN1c2ccccc2Sc2ccccc21)[N+](C)(C)C (racemic) [CH3 / I, dl-trimethyl[1-methyl-2-(phenothiazin-10-yl)ethyl]ammonium iodide] | 98.0 (1.0) % | 20.0 (13.38) % | 47.0 (7.59) % | 98.66 (1.33) % | 97.5% and 98.66 (1.33) % | 99.0 (1.0) % and 99.3 (0.67) % | Pulmonary Compliance % Protection [1, 11]: 5.8±3.6%; Pulmonary Resistance % Protection [1, 11]: 14.3±1.1%; Duration 50% (time to return to 50% of control constricted state) ([1]; 0.1 μg, methyl chloride done in 3 cats, listed as Promethazine methyl iodide): 6.7 ± 3.2 min; Duration 50% (time to return to 50% of control constricted state) [1, 12]: 11.3 ± 2.0 min; Pulmonary Compliance % Protection [1, 12]: 3.7± .52%; Pulmonary Resistance % Protection [1, 12]: 39.4±2.1%; Duration 50% (time to return to 50% of control constricted state) [1, 13]: 21.2 ± 6.8 min; Pulmonary Compliance % Protection [1, 13]: 15.5±6.0%; Pulmonary Resistance % Protection [1, 13]: 48.5±3.3%; Duration 50% (time to return to 50% of control constricted state) [1, 14]: 46.1 ± 9.7 min; Pulmonary Compliance % Protection [1, 14]: 26.4±4.1%; Pulmonary Resistance % Protection [1, 14]: 78.1±4.4%; Mean % Inhibition (±S.E.) vs. Histamine (histamine; 0.15 μg as cation, physiological saline): 15.33 (6.96) %; Mean % Inhibition (±S.E.) vs. Histamine (histamine; [15]): 49.0 (11.14) %; Mean % Inhibition (±S.E.) vs. Acetylcholine (acetylcholine; [15]): 62.38 (4.67) % and 62.75 (11.89) %
6 | CC(CN1c2ccccc2Sc2ccccc21)[N+](C)(C)C (racemic) [CH3 / NO3, dl-Trimethyl[1-Methyl-2-(Phenothiazin-10-yl)Ethyl]Ammonium Nitrate] | – | 12.0 (6.26) % | 43.5 (10.33) % | 100 (0) % | – | – | –
7 | CCC[N+](C)(C)C(C)CN1c2ccccc2Sc2ccccc21 (racemic) [n-C3 H7 / I, dl-N,N,α-Trimethyl-N-n-Propyl-10H-Phenothiazine-10-Ethanaminium Iodide] | 68.0 (8.14) % | 5.5 (3.20) % | 43.75 (6.51) % | 84.0 (6.56) % | – | – | –
8 | CCCC[N+](C)(C)C(C)CN1c2ccccc2Sc2ccccc21 (racemic) [n-C4 H9 / I, dl-N-n-Butyl,N,N,α-Trimethyl-10H-Phenothiazine-10-Ethanaminium Iodide] | 66.33 (2.96) % | 0% | 39.25 (2.53) % | 52.0 (6.35) % | – | – | –
9 | CC(CN1c2ccccc2Sc2ccccc21)[N+](C)(C)C (stereo not drawn) [CH"3 / I, l-Trimethyl[1-Methyl-2-(Phenothiazine-10-yl)Ethyl]Ammonium Iodide] | – | – | – | – | 95 (4.66) % | 81% | –
10 | CC(CN1c2ccccc2Sc2ccccc21)[N+](C)(C)C (stereo not drawn) [CH'3 / I, d-trimethyl[1-methyl-2-(phenothiazin-10-yl)ethyl]ammonium iodide] | – | – | – | – | 82% | 97% | –
11 | Cn1c(=O)c2[nH]cnc2n(C)c1=O [aminophylline] | – | – | – | – | – | – | bronchodilator activity ([2]; aerosol): inactive as a bronchodilator aerosol; bronchial smooth muscle relaxation (smooth muscle; in vitro or by injection in vivo): can relax bronchial smooth muscle in vitro or by injection in vivo
12 | CN[C@@H](C)[C@H](O)c1ccccc1 [ephedrine] | – | – | – | – | – | – | bronchodilator activity ([2]; aerosol): not by aerosol; bronchodilator activity ([2]; oral): orally active bronchodilator; smooth muscle relaxation (smooth muscle): smooth muscle relaxant
13 | CNC[C@H](O)c1ccc(O)c(O)c1 [epinephrine] | – | – | – | – | – | – | smooth muscle relaxation (smooth muscle): smooth muscle relaxant
